Several values for one entry are separate records, joined by “and”; a condition that tells them apart may be missing. Equal entries are not always repeated. Toxic doses and inconclusive results are not listed. Rule as the data show it: active = T/C of 150% or more; inactive = T/C below 125%.
System: L1210 leukemia ip in BDF1 mice, survival T/C
Experiment: NCI In Vivo Anticancer Drug Screen. Data for tumor model L1210 Leukemia (intraperitoneal) in B6D2F1 (BDF1) mice
Conditions: endpoint: mean survival time, higher = longer survival
How it was run: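 Ratio derived from survival: compound-dosed mice over vehicle-dosed mice, all bearing a transplantable tumor.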

[1] = dose: 50.0 mg/kg/injection, schedule: Q01DX001 (ip), vehicle: carboxymethylcellulose (CMC)
[2] = dose: 100.0 mg/kg/injection, schedule: Q01DX001 (ip), vehicle: carboxymethylcellulose (CMC)
[3] = dose: 200.0 mg/kg/injection, schedule: Q01DX001 (ip), vehicle: carboxymethylcellulose (CMC)
[4] = dose: 400.0 mg/kg/injection, schedule: Q01DX001 (ip), vehicle: carboxymethylcellulose (CMC)
[5] = dose: 50.0 mg/kg/injection, schedule: Q01DX009 (ip), vehicle: Klucel (hydroxypropylcellulose) (HPC)
[6] = dose: 100.0 mg/kg/injection, schedule: Q01DX009 (ip), vehicle: Klucel (hydroxypropylcellulose) (HPC)
[7] = dose: 100.0 mg/kg/injection, schedule: Q04DX003 (ip), vehicle: Klucel (hydroxypropylcellulose) (HPC)
[8] = dose: 200.0 mg/kg/injection, schedule: Q01DX009 (ip), vehicle: Klucel (hydroxypropylcellulose) (HPC)
[9] = dose: 200.0 mg/kg/injection, schedule: Q04DX003 (ip), vehicle: Klucel (hydroxypropylcellulose) (HPC)
[10] = dose: 400.0 mg/kg/injection, schedule: Q04DX003 (ip), vehicle: Klucel (hydroxypropylcellulose) (HPC)
[11] = dose: 25.0 mg/kg/injection, schedule: Q01DX009 (ip), vehicle: saline
[12] = dose: 50.0 mg/kg/injection, schedule: Q01DX009 (ip), vehicle: saline
[13] = dose: 100.0 mg/kg/injection, schedule: Q01DX001 (ip), vehicle: saline
[14] = dose: 200.0 mg/kg/injection, schedule: Q01DX001 (ip), vehicle: saline
[15] = dose: 400.0 mg/kg/injection, schedule: Q01DX001 (ip), vehicle: saline
[16] = dose: 400.0 mg/kg/injection, schedule: Q01DX009 (ip), vehicle: Klucel (hydroxypropylcellulose) (HPC)
[17] = dose: 100.0 mg/kg/injection, schedule: Q04DX003 (ip), vehicle: saline with Tween-80
[18] = dose: 200.0 mg/kg/injection, schedule: Q04DX003 (ip), vehicle: saline with Tween-80
[19] = dose: 400.0 mg/kg/injection, schedule: Q04DX003 (ip), vehicle: saline with Tween-80
[20] = dose: 100.0 mg/kg/injection, schedule: Q04DX003 (ip), vehicle: saline
[21] = dose: 200.0 mg/kg/injection, schedule: Q04DX003 (ip), vehicle: saline
[22] = dose: 50.0 mg/kg/injection, schedule: Q01DX001 (ip), vehicle: saline

Measured: T/C

CC1=C(c2ccccc2)C(c2ccccc2)=CC1=O
inactive: [1] 95 % of control | [2] 92 % of control | [3] 92 % of control | [4] 95 % of control

O=C1CCCCC1c1cccc2ccccc12 (stereo not given)
inactive: dose: 100.0 mg/kg/injection, schedule: Q01DX001 (sc), vehicle: olive oil, sesame oil, peanut oil 97 % of control | dose: 200.0 mg/kg/injection, schedule: Q01DX001 (sc), vehicle: olive oil, sesame oil, peanut oil 104 % of control | dose: 400.0 mg/kg/injection, schedule: Q01DX001 (sc), vehicle: olive oil, sesame oil, peanut oil 106 % of control

Cc1ccc(NC(=O)OCCOc2ccc(Cl)cc2)c([N+](=O)[O-])c1
inactive: [5] 97 % of control | [6] 87 % of control | [7] 99 % of control | [8] 90 % of control | [9] 104 % of control | [10] 90 % of control

ClCCNCc1ccc(Nc2ccnc3cc(Cl)ccc23)cc1
inactive: dose: 75.0 mg/kg/injection, schedule: Q01DX001 (ip), vehicle: carboxymethylcellulose (CMC) 103 % of control

S=C(N/N=C/c1ccccn1)NC1CC2C=CC1C2 (stereo not given)
inactive: [6] 100 % of control | [8] 95 % of control

CCCCCCCCCC(N)=O
inactive: [5] 97 % of control | dose: 100.0 mg/kg/injection, schedule: Q01DX001 (ip), vehicle: Klucel (hydroxypropylcellulose) (HPC) 110 % of control | [6] 90 % of control | dose: 200.0 mg/kg/injection, schedule: Q01DX001 (ip), vehicle: Klucel (hydroxypropylcellulose) (HPC) 100 % of control | dose: 400.0 mg/kg/injection, schedule: Q01DX001 (ip), vehicle: Klucel (hydroxypropylcellulose) (HPC) 93 % of control

COC12C[C@]34CCCN3CC(O1)c1cc3c(cc1[C@@H]4[C@@H]2O)OCO3
inactive: [11] 105 % of control | [12] 112 % of control

CC(=O)Oc1ccccc1/C=C\C=O
inactive: [13] 103 % of control | [14] 106 % of control | [15] 105 % of control

Cn1nc([N+](=O)[O-])sc1=N
inactive: [7] 98 % of control | [9] 98 % of control | [10] 101 % of control

O=C1Nc2ccc(Cl)cc2C(c2ccccc2)=NC1O (stereo not given)
inactive: dose: 25.0 mg/kg/injection, schedule: Q01DX009 (ip), vehicle: Klucel (hydroxypropylcellulose) (HPC) 103 % of control | dose: 25.0 mg/kg/injection, schedule: Q04DX003 (ip), vehicle: Klucel (hydroxypropylcellulose) (HPC) 98 % of control | [5] 101 % of control | dose: 50.0 mg/kg/injection, schedule: Q04DX003 (ip), vehicle: Klucel (hydroxypropylcellulose) (HPC) 104 % of control | [6] 98 % of control | [7] 104 % of control | [8] 107 % of control | [9] 114 % of control | [16] 91 % of control | [10] 111 % of control

CC[C@@H]1C[C@H]2CC3c4[nH]c5ccc(OC)cc5c4CCN(C2)C31
inactive: dose: 25.0 mg/kg/injection, schedule: Q01DX001 (ip), vehicle: saline with Tween-80 96 % of control | dose: 50.0 mg/kg/injection, schedule: Q01DX001 (ip), vehicle: saline with Tween-80 96 % of control | dose: 100.0 mg/kg/injection, schedule: Q01DX001 (ip), vehicle: saline with Tween-80 93 % of control and 109 % of control

O=C(OCC(OC(=O)c1ccccc1)C1OCC(OC(=O)c2ccccc2)C1OC(=O)c1ccccc1)c1ccccc1 (stereo not given)
inactive: [17] 88 % of control | [18] 88 % of control | [19] 88 % of control

CCCCCCCCC(C(=O)c1ccccc1)=C(C(F)(F)F)C(F)(F)F
inactive: [11] 100 % of control | [12] 96 % of control | dose: 100.0 mg/kg/injection, schedule: Q01DX009 (ip), vehicle: saline 91 % of control | [17] 86 % of control | [18] 90 % of control | [19] 95 % of control

Cc1ccc(NC(=S)N2CCCC(C)C2)cc1C (stereo not given)
inactive: [6] 102 % of control | [8] 100 % of control | [16] 102 % of control

CC(C)=CC[N+]12CN3CN(CN(C3)C1)C2
inactive: [20] 97 % of control | [21] 103 % of control | dose: 400.0 mg/kg/injection, schedule: Q04DX003 (ip), vehicle: saline 110 % of control

OCCc1cccc(O)c1
inactive: [22] 102 % of control | [13] 93 % of control | [14] 86 % of control | [15] 100 % of control

N#CSC1CSC(SC2=NC(SC#N)CS2)=N1 (stereo not given)
inactive: [6] 94 % of control | [20] 98 % of control | [8] 104 % of control | [21] 92 % of control

CC(O)C(N)C(=O)O (stereo not given)
inactive: dose: 12.5 mg/kg/injection, schedule: Q04DX002 (ip), vehicle: saline 103 % of control and 97 % of control | dose: 18.75 mg/kg/injection, schedule: Q04DX003 (ip), vehicle: saline 101 % of control | dose: 25.0 mg/kg/injection, schedule: Q04DX002 (ip), vehicle: saline 107 % of control | dose: 37.5 mg/kg/injection, schedule: Q04DX003 (ip), vehicle: saline 98 % of control | dose: 50.0 mg/kg/injection, schedule: Q04DX002 (ip), vehicle: saline 107 % of control | dose: 75.0 mg/kg/injection, schedule: Q04DX003 (ip), vehicle: saline 108 % of control and 114 % of control | [2] 87 % of control | dose: 100.0 mg/kg/injection, schedule: Q04DX002 (ip), vehicle: saline 107 % of control | dose: 150.0 mg/kg/injection, schedule: Q04DX003 (ip), vehicle: saline 108 % of control | [3] 91 % of control | [8] 91 % of control | dose: 200.0 mg/kg/injection, schedule: Q04DX002 (ip), vehicle: saline 93 % of control | dose: 300.0 mg/kg/injection, schedule: Q04DX003 (ip), vehicle: saline 94 % of control | [4] 89 % of control | dose: 400.0 mg/kg/injection, schedule: Q04DX002 (ip), vehicle: saline 107 % of control

CCCCC(O)(CCCC)CC(C)(C)C
inactive: [2] 103 % of control | [3] 92 % of control | [4] 92 % of control

CCCCCCCCC[As](=O)(O)CCCCCCCCC
inactive: [22] 101 % of control | [13] 98 % of control | [14] 98 % of control | [15] 101 % of control

CCOc1nc(Cl)nc2nc[nH]c12
inactive: [13] 102 % of control | [14] 102 % of control | [15] 96 % of control

CC1=C(C(=O)O)C(C)CC(=O)N1c1ccccc1 (stereo not given)
inactive: [1] 102 % of control | [2] 96 % of control | [3] 93 % of control | [4] 96 % of control

CCn1c2ccccc2c2cc(NC(C)=O)ccc21
inactive: [17] 103 % of control | [18] 98 % of control | [19] 101 % of control

CCOP(=S)(OCC)SCc1ccccc1
inactive: [17] 97 % of control | [18] 98 % of control | [19] 106 % of control

Source: PubChem BioAssay AID248 (DTP/NCI, 2004)
